Data taken from patent publication US20120190752A1, “EXO-S-MECAMYLAMINE METHOD, USE, AND COMPOUND FOR TREATMENT” (Targacept Inc., priority 2009, published 2012).

System: subjects with major depressive disorder (MDD) who were inadequate responders to citalopram
Experiment: Individual HAMD-17 factor (subscale) scores, exploratory analysis
Assay type: in vivo, human
Description: In more detail, a multi-center double-blind, randomized, placebo-controlled, parallel group, flexible dose titration study of TC-5214 as adjunctive therapy in subjects with major depressive disorder (MDD) who were inadequate responders to citalopram was conducted in centers in the US and India. The study consisted of a screening period, baseline/washout period, open-label phase, double-blind phase, and a follow-up visit. Subject participation in the study could continue for up to 16 weeks of treatment. Following a washout period of up to 28 days for other antidepressants, subjects with MDD and a MADRS total score >/=28 and a Clinical Global Impression-Severity (CGI-S) score >/=4 were enrolled on Day 1 into an open-label citalopram-only phase of the study. This phase lasted 8 weeks, with citalopram (CIT) dose increased from a once-daily dose of 20 mg (Day 1 through Week 4) to 40 mg (Week 4 through Week 8). A total of 579 subjects entered the open-label citalopram phase. At Week 8, subjects who tolerated 40 mg CIT, but whose MADRS score was reduced <50% from baseline and no lower than 17, and CGI-S≧4, were considered inadequate responders. These subjects (n=270) were randomized in a double-blind fashion to receive either placebo or TC-5214-23 as add-on therapy to continued CIT. The double-blind phase of the study also lasted 8 weeks (Week 8 to Week 16). Study drug, TC-5214-23 or placebo, was started at 2 mg daily (1 mg twice per day [BID] dosing), added on to continuing CIT (40 mg PO qd). After 2 weeks of treatment, the dose of TC-5214 could be increased to 4 mg (2 mg BID) or continued unchanged, with up-titration based upon good tolerability and inadequate therapeutic response. After a further 2 weeks, the dose of TC-5214 could be increased again to 8 mg (4 mg BID) if judged appropriate by the investigator, based upon good tolerability and inadequate therapeutic response. At any time during the double-blind phase of the study, placebo or TC-5214-23 could be reduced to the previous dose level following the emergence of unacceptable adverse events (AEs). […] At this follow-up, any signs or symptoms of relapse were evaluated. If a subject was prematurely discontinued from the study between Week 8 and Week 16 for any reason, the investigator was to make every effort to perform all evaluations as per protocol, assuming the subject had reached the end of the double-blind add-on treatment phase. These evaluations were to be made as soon as possible and within 2 weeks of discontinuation. […] There was no meaningful difference in results as a function of age, gender, site, or smoking status. An exploratory analysis assessed the differences in the treatment groups from Week 8 (double-blind baseline) to Week 16 for each individual HAMD-17 factor score.

[1] = ITT population, Week 8 (double-blind baseline) to Week 16

## CNC1(C)C2CCC(C2)C1(C)C (stereo in doubt) [TC-5214, (S)—N,2,3,3-tetramethylnorbornan-2-amine]
[1]
  HAMD-17 item 1 Depression-Mood: Adjusted Mean Change TC-5214—Placebo (SD): −0.69 (0.86)
  HAMD-17 item 1 Depression-Mood: Effect Size: 0.80
  HAMD-17 item 2 Feelings of Guilt: Adjusted Mean Change TC-5214—Placebo (SD): −0.43 (0.72)
  HAMD-17 item 2 Feelings of Guilt: Effect Size: 0.60
  HAMD-17 item 3 Suicide: Adjusted Mean Change TC-5214—Placebo (SD): −0.07 (0.40)
  HAMD-17 item 3 Suicide: Effect Size: 0.18
  HAMD-17 item 4 Early Insomnia: Adjusted Mean Change TC-5214—Placebo (SD): −0.41 (0.64)
  HAMD-17 item 4 Early Insomnia: Effect Size: 0.64
  HAMD-17 item 5 Middle Insomnia: Adjusted Mean Change TC-5214—Placebo (SD): −0.42 (0.64)
  HAMD-17 item 5 Middle Insomnia: Effect Size: 0.66
  HAMD-17 item 6 Late Insomnia: Adjusted Mean Change TC-5214—Placebo (SD): −0.35 (0.63)
  HAMD-17 item 6 Late Insomnia: Effect Size: 0.56
  HAMD-17 item 7 Work and Activities: Adjusted Mean Change TC-5214—Placebo (SD): −0.49 (0.86)
  HAMD-17 item 7 Work and Activities: Effect Size: 0.57
  HAMD-17 item 8 Retardation: Adjusted Mean Change TC-5214—Placebo (SD): −0.31 (0.59)
  HAMD-17 item 8 Retardation: Effect Size: 0.53
  HAMD-17 item 9 Agitation: Adjusted Mean Change TC-5214—Placebo (SD): −0.40 (0.68)
  HAMD-17 item 9 Agitation: Effect Size: 0.59
  HAMD-17 item 10 Psychic Anxiety: Adjusted Mean Change TC-5214—Placebo (SD): −0.59 (0.77)
  HAMD-17 item 10 Psychic Anxiety: Effect Size: 0.77
  HAMD-17 item 11 Somatic Symptoms: Anxiety: Adjusted Mean Change TC-5214—Placebo (SD): −0.41 (0.70)
  HAMD-17 item 11 Somatic Symptoms: Anxiety: Effect Size: 0.59
  HAMD-17 item 12 Somatic Symptoms: GI: Adjusted Mean Change TC-5214—Placebo (SD): −0.23 (0.52)
  HAMD-17 item 12 Somatic Symptoms: GI: Effect Size: 0.44
  HAMD-17 item 13 Somatic Symptoms: General: Adjusted Mean Change TC-5214—Placebo (SD): −0.24 (0.66)
  HAMD-17 item 13 Somatic Symptoms: General: Effect Size: 0.36
  HAMD-17 item 14 Somatic Symptoms: Genital: Adjusted Mean Change TC-5214—Placebo (SD): −0.34 (0.62)
  HAMD-17 item 14 Somatic Symptoms: Genital: Effect Size: 0.55
  HAMD-17 item 15 Hypochondriasis: Adjusted Mean Change TC-5214—Placebo (SD): −0.48 (0.74)
  HAMD-17 item 15 Hypochondriasis: Effect Size: 0.65
  HAMD-17 item 16 Weight Loss: Adjusted Mean Change TC-5214—Placebo (SD): −0.20 (0.53)
  HAMD-17 item 16 Weight Loss: Effect Size: 0.38
  HAMD-17 item 17 Insight: Adjusted Mean Change TC-5214—Placebo (SD): 0.03 (0.31)
  HAMD-17 item 17 Insight: Effect Size: 0.10
ITT, with the exception of the Suicide and Insight subscales, result in words
  each HAMD-17 subscale score change from baseline compared with placebo: statistically significant decreases (improvements)
